Each structure is given as a SMILES string. In brackets after ≈: the same amount, converted by molar mass.

Common to all, as to assay: Antifungal susceptibility, MIC by broth macro-dilution method
One assay concerns C. albicans (ATCC 24433). The class given is cell-based, Candida albicans. Conditions: end points after 48 hours, NI till x = no inhibition up to x; for MIC: Candida albicans, ATCC24433, RPMI 1640 medium with MOPS buffer, read-out: MIC against fungi, C. albicans (ATCC 24433); for MIC against fungi, C. albicans (ATCC 24433): RPMI 1640 medium with MOPS buffer. The method, then:
(§1) In vitro evaluation of antifungal activity was performed by determining the minimum inhibitory concentration (MIC). Anti-fungal susceptibility testing of these anti-fungal compounds was done by broth dilution method using RPMI 1640 medium with MOPS buffer. Known anti-fungal agents like fluconazole and amphotericin-B were used as positive control. End points were determined after 48 hours visually and by using spectrophotometer wherever necessary. Different dilutions were, tried and various sets of experiments performed.

Assay [1] relates to F. proliferatum (ATCC 10052). The class given is cell-based, Fusarium proliferatum. To be noted: end points after 48 hours, NI till x = no inhibition up to x; for MIC: Fusarium proliferatum, ATCC10052, RPMI 1640 medium with MOPS buffer, read-out: MIC against fungi, F. proliferatum (ATCC 10052); for MIC against fungi, F. proliferatum (ATCC 10052): RPMI 1640 medium with MOPS buffer. Here is the method:
as §1

The subject of the next assay is A. niger (ATCC 16404). The assay is classed as cell-based, Aspergillus niger. To be noted: end points after 48 hours, NI till x = no inhibition up to x; for MIC: Aspergillus niger, ATCC16404, RPMI 1640 medium with MOPS buffer, read-out: MIC against fungi, A. niger (ATCC 16404); for MIC against fungi, A. niger (ATCC 16404): RPMI 1640 medium with MOPS buffer. The method, then: as §1

Usually MIC stands for the lowest concentration found to suppress growth. `O=c1c2cc(CCCCOCc3ccccc3)sc2ncn1CC(O)(Cn1cncn1)c1ccc(F)cc1F` (stereo not drawn) [Compound 1-A01, 6-(4-Benzyloxybutyl)-3-[2-(2,4-difluorophenyl)-2-hydroxy-3-[1,2,4]triazol-1-ylpropyl]-thieno[2,3-d]pyrimidin-4(3H)-one]: the figures for the MIC (with C. albicans (ATCC 24433); in assay [1]; in the assay with A. niger (ATCC 16404)) were 0.06 to 0.12 µg/mL (≈ 0.109 to 0.218 µM), above 4 µg/mL and above 4 µg/mL, respectively.

As for `O=c1c2cc(CCCOCc3ccccc3)sc2ncn1CC(O)(Cn1cncn1)c1ccc(F)cc1F` (stereo not drawn) [Compound 1-A02, 6-(3-Benzyloxypropyl)-3-[2-(2,4-difluorophenyl)-2-hydroxy-3-[1,2,4]-triazol-1-ylpropyl]-thieno[2,3-d]pyrimidin-4(3H)-one], the figures for the MIC (with C. albicans (ATCC 24433); in assay [1]; with A. niger (ATCC 16404)) were 0.06 to 0.12 µg/mL (≈ 0.112 to 0.223 µM), above 4 µg/mL and above 4 µg/mL, respectively.

As to `CCCCCCc1cc2c(=O)n(CC(O)(Cn3cncn3)c3ccc(F)cc3F)cnc2s1` (stereo not drawn) [Compound 1-A03, 3-[2-(2,4-Difluorophenyl)-2-hydroxy-3-[1,2,4]-triazol-1-yl-propyl]-6-(n-hexyl)-thieno[2,3-d]pyrimidin-4(3H)-one], the minimum inhibitory concentration (MIC) was 0.03 to 0.06 µg/mL (≈ 0.0634 to 0.127 µM) in the assay on C. albicans (ATCC 24433), above 2 µg/mL in assay [1] and above 2 µg/mL in the assay on A. niger (ATCC 16404).

For the compound `CCCCCc1cc2c(=O)n(CC(O)(Cn3cncn3)c3ccc(F)cc3F)cnc2s1` (stereo not drawn) [Compound 1-A04, 3-[2-(2,4-Difluorophenyl)-2-hydroxy-3-[1,2,4]-triazol-1-yl-propyl]-6-n-pentylthieno[2,3-d]pyrimidin-4(3H)-one], the results for the minimum inhibitory concentration (MIC) (in the assay on C. albicans (ATCC 24433); in assay [1]; with A. niger (ATCC 16404)) were 0.03 to 0.06 µg/mL (≈ 0.0653 to 0.131 µM), above 4 µg/mL and above 4 µg/mL, respectively.

With `CCCCc1c(CCC)sc2ncn(CC(O)(Cn3cncn3)c3ccc(F)cc3F)c(=O)c12` (stereo not drawn) [Compound 1-A05, 5-n-Butyl-3-[2-(2,4-difluorophenyl)-2-hydroxy-3-[1,2,4]-triazol-1-yl-propyl]-6-n-propyl-thieno[2,3-d]pyrimidin-4(3H)-one], the results for the minimal inhibitory concentration (MIC) (in the assay on C. albicans (ATCC 24433); in assay [1]; with A. niger (ATCC 16404)) were 2 to 4 µg/mL (≈ 4.1 to 8.2 µM), above 4 µg/mL and above 4 µg/mL, respectively.

For `CCCCCCCc1cc2c(=O)n(CC(O)(Cn3cncn3)c3ccc(F)cc3F)cnc2s1` (stereo not drawn) [Compound 1-A06, 3-[2-(2,4-Difluorophenyl)-2-hydroxy-3-[1,2,4]-triazol-1-yl-propyl]-6-n-heptylthieno[2,3-d]pyrimidin-4(3H)-one], the MIC in the assay with C. albicans (ATCC 24433) is 0.06 to 0.12 µg/mL (≈ 0.123 to 0.246 µM); in assay [1], above 2 µg/mL; in the assay with A. niger (ATCC 16404), above 2 µg/mL.

With `O=c1c2c3c(sc2ncn1CC(O)(Cn1cncn1)c1ccc(F)cc1F)CCC3` (stereo not drawn) [Compound 1-A07, 3-[2-(2,4-Difluorophenyl)-2-hydroxy-3-[1,2,4]-triazol-1-yl-propyl]-3,5,6,7-tetrahydrocyclopenta[4,5]thieno[2,3-d]pyrimidin-4(3H)-one], the “MIC against fungi, C. albicans (ATCC 24433)” value in the assay with C. albicans (ATCC 24433) lay in the range of 0.25 to 0.5 µg/mL. In assay [1], the “MIC against fungi, F. proliferatum (ATCC 10052)” value is on record as “NI till 2 μg/ml”. Also, in the assay on A. niger (ATCC 16404), the “MIC against fungi, A. niger (ATCC 16404)” value is “NI till 2 μg/ml”.

On to `CCCCCc1c(C)sc2ncn(CC(O)(Cn3cncn3)c3ccc(F)cc3F)c(=O)c12` (stereo not drawn) [Compound 1-A08, 3-[2-(2,4-Difluorophenyl)-2-hydroxy-3-[1,2,4]triazol-1-yl-propyl]-6-methyl-5-npentyl-thieno[2,3-d]pyrimidin-4(3H)-one], for which the “MIC against fungi, C. albicans (ATCC 24433)” value against C. albicans (ATCC 24433) is 2 to 4 µg/mL. For the same compound, the “MIC against fungi, F. proliferatum (ATCC 10052)” value in assay [1] was “NI till 4 μg/ml”. In the assay with A. niger (ATCC 16404), the “MIC against fungi, A. niger (ATCC 16404)” value is listed as “NI till 4 μg/ml”.

As to `O=c1c2c3c(sc2ncn1CC(O)(Cn1cncn1)c1ccc(F)cc1F)CCCC3` (stereo not drawn) [Compound 1-A09, 3-[2-(2,4-Difluorophenyl)-2-hydroxy-3-[1,2,4]-triazol-1-yl-propyl]-5,6,7,8-tetrahydrobenzothieno[2,3-d]pyrimidin-4(3H)-one], the MIC was 0.25 to 0.5 µg/mL (≈ 0.564 to 1.13 µM) in the assay on C. albicans (ATCC 24433), above 8 µg/mL in assay [1] and above 8 µg/mL with A. niger (ATCC 16404).

For the origin of these results see patent US8324227B2, “Thieno[2,3-D]-pyrimidin-4(3H)-one compounds with antifungal properties and process thereof” (FDC Limited, priority 2008, dated 2012).
